From paper PMC5702336, “Critical Role of Hepatic Cyp450s in the Testis-Specific Toxicity of (5R)-5-Hydroxytriptolide in C57BL/6 Mice” (Frontiers in Pharmacology, 2017)
Entries after “also recorded” stand apart in the source; their conditions may differ.

How the values were obtained:
[1] = tested on: GC-2spd cells; test: Pol II protein level in spermatocyte-like cells (western blot); format: cell-based, mouse
Description: Mouse GC-1spg (spermatogonia-like, ATCC number: CRL-2053), TM4 (Sertoli cell-like, ATCC number: CRL-1715), and GC-2spd (spermatocyte-like, ATCC number: CRL-2196) were purchased from ATCC (Manassas, VA). Cells were grown in a 5% CO2 atmosphere at 37°C. TM4 was cultured in DMEM supplemented with 5% horse serum, 2.5% fetal bovine serum and 1x antibiotic-antimyotic (Cat. NO. 15240062, Life technologies). GC-1spg and GC-2spd were cultured in DMEM supplemented with 10% fetal bovine serum (Cat. No. F2442, Sigma, USA) and 1x antibiotic-antimyotic (Cat.NO. 15240062, Life technologies).
Cells were washed twice with ice-cold PBS (137 mM NaCl, 2.7 mM KCl, 10 mM Na2HPO4, and 1.8 mM KH2PO4, pH 7.4) and lysed in SDS sample buffer. Cell lysates, containing 20 μg of protein, were separated with SDS-PAGE (8%) and transferred to polyvinylidene difluoride membranes. After blocking in 5% non-fat milk in tris-buffered saline containing 0.1% Tween-20 (pH = 7.6), membranes were incubated with the appropriate primary antibodies at 4°C overnight. The primary antibodies γ-H2AX (Cat. No: 2577, Lot. No: 11, CST, USA) and Pol II (Cat. No: 05-623, Lot. No: 2397109, Millipore, USA) diluted 1:1000 in 5% bovine serum albumin (BSA, Cat. No. B2064-50G, Sigma, USA). […]

[2] = tested on: WT and KO mice; test: 15-day oral toxicological study in WT and hepatic Cpr KO mice (organ weights, H&E, TUNEL, serum chemistry); format: in vivo, mouse
Description: Animal use protocols were approved by the Institutional Animal Care and Use Committee of the Shanghai Institute of Materia Medica (Shanghai, China), IACUC No. 2016-10-RJ-136. The Cpr knockout (KO) mice were a gift from Professor Xinxin Ding (Wadsworth Center, Albany, NY, USA). Procedures for animal breeding and genotyping were reported previously (Wu et al., [2005]). Eight to twelve weeks old male KO mice and their WT littermates on a mixed C57BL/6 and 129/Sv genetic background were used in this study. All animals were provided with a certified standard diet and tap water ad libitum during experiments. All animals were maintained under controlled temperature with a 12 h:12 h light/dark cycle. All efforts were made to minimize animal discomfort and illness, and mice were anesthetized with pentobarbital sodium (150 mg/kg, i.p.) before sample collection. No animals died during the experiment.
(§1) For toxicity experiments, mice (n = 3/group) were treated with LLDT-8 (0.5 or 1.0 mg/kg) consecutively administered by gavage for 15 days. Controls received saline. Mice were killed on the 15th-day post-administration and blood, liver, kidney, spleen, testes, and epididymis were collected. About 500 μL blood samples were collected from the heart. The main lobe of the liver, kidney, spleen, and epididymis was fixed in 10% neutral buffered formalin for histological examination, and the left testicle was fixed in modified Davidson's buffer (30% of a 37–40% solution of formaldehyde, 15% ethanol, 5% glacial acetic acid, and 50% distilled H2O) for 16 h followed by 10% neutral buffered formalin for 24 h (Latendresse et al., [2002]). Tissue sections were stained with hematoxylin and eosin (H&E). Remaining tissues were stored at −80°C for RNA and protein extraction.
Sera were assayed for Urea, creatine (CRE), alanine aminotransferase (ALT), and aspartate transaminase (AST) using an automatic HITACHI Clinical Analyzer Model 7080 (Hitachi High-Technologies Corporation, Tokyo, Japan). The intercoefficients of variability in this assay were1.1% (ALT), 0.9% (AST), 1.2% (Urea) and 1.4% (CRE). The intracoefficients of variability in this assay were 2.0% (ALT), 0.9% (AST), 1.2% (Urea) and 5.1% (CRE).
TUNEL assays were performed according to the manufacturer's protocol (In Situ Cell Death Kit, Roche Diagnostics, Indianapolis, IN). In brief, the paraffin-embedded testis tissue samples were deparaffinized three times in exchanges wash of xylene. The testis sections were then gradually rehydrated using decreasing ethanol concentrations (100, 95, 90, 80, and 70%) followed by PBS (pH = 7.4). After digestion with proteinase K (15 μg/mL, Cat. No. 539480, Lot. No. D00148754, Millipore, USA), paraffin-embedded tissue sections were labeled with a TUNEL reaction mixture, which contained terminal deoxynucleotidyl transferase incorporated with fluorescein. And 1 μg/mL DAPI (Sigma, USA) to used to reveal nuclear DNA. After staining, images were obtained with a fluorescent microscope (NIKON TS2, Japan).

[3] = tested on: γ-H2AX; test: γ-H2AX protein level and localization in testes and liver (western blot, immunofluorescence); format: in vivo, mouse
Description: as §1
Cells were washed twice with ice-cold PBS (137 mM NaCl, 2.7 mM KCl, 10 mM Na2HPO4, and 1.8 mM KH2PO4, pH 7.4) and lysed in SDS sample buffer. Cell lysates, containing 20 μg of protein, were separated with SDS-PAGE (8%) and transferred to polyvinylidene difluoride membranes. After blocking in 5% non-fat milk in tris-buffered saline containing 0.1% Tween-20 (pH = 7.6), membranes were incubated with the appropriate primary antibodies at 4°C overnight. The primary antibodies γ-H2AX (Cat. No: 2577, Lot. No: 11, CST, USA) and Pol II (Cat. No: 05-623, Lot. No: 2397109, Millipore, USA) diluted 1:1000 in 5% bovine serum albumin (BSA, Cat. No. B2064-50G, Sigma, USA). Then the membranes were exposed to secondary antibodies (1:10,000, Cat. No.111-035-003, 115-035-003, Jackson ImmunoResearch Laboratories, USA) in 5% non-fat milk for 1 h at room temperature. Immunoreactive proteins were visualized using an enhanced chemiluminescent system (Cat. No. WBKLS0500, Millipore, Shanghai, China).
For immunofluorescence analysis, the paraffin-embedded testis tissue samples were deparaffinized three times in exchanges wash of xylene. The testis sections were then gradually rehydrated using decreasing ethanol concentrations followed by PBS (pH = 7.4). After antigen retrieval in boiling 0.1M citrate buffer (pH = 6.0), the tissue sections were placed in humidity chambers and incubated with 4% BSA in PBS for 2 h at room temperature. Then 1:400 1% BSA diluted γ-H2AX primary antibody (Cat. No: ab26350, Lot. No: GR305763-3, Abcam, USA) and isotope control Mouse IgG1 (Cat. No: sc-3877, Lot. No: F1316, Santa Cruz, USA) was used. After incubated with primary antibody overnight at 4°C, testis tissue samples were washed three times with PBS. […]

[4] = tested on: mice; set-up: method as in Zhou et al., 2005; details: p.o., ref Zhou et al., 2005; cited from earlier work
[5] = after LLDT-8 treatment, 15 days

SMILES: CC(C)[C@]12O[C@H]1[C@@H]1O[C@]13[C@]1(O[C@H]1C[C@@]1(O)C4=C(CC[C@]31C)C(=O)OC4)[C@@H]2O [LLDT-8, (5R)-5-hydroxytriptolide]
- Pol II protein [1]: dose- and time-dependently reduced
- epididymis weight ([2]; 0.5–1 mg/kg by gavage 15 days): not changed
- testes weight ([2]; 0.5–1 mg/kg by gavage 15 days): dose-dependently reduced
- testis histology (H&E) in KO mice compared to WT mice ([2]; 0.5–1 mg/kg by gavage 15 days): reduced germinal cell layers; also recorded: severe vacuolar degeneration; also recorded: absence of spermatids development
- body weight ([2]; 0.5–1 mg/kg by gavage 15 days, WT and KO mice): did not alter
- hematology and spleen in KO mice ([2]; 15 days by gavage): induced hematological change and enlarged spleen
- liver injury and kidney damage ([2]; 15 days by gavage, WT and KO mice): did not cause liver injury and kidney damage
- TUNEL-positive foci in testes of WT mice vs WT mice with saline [2, 5]: apparently increased
- number of TUNEL positive foci in testis, KO mice vs WT mice [2, 5]: much higher
- XY bodies indicated by γ-H2AX foci in testes of WT mice ([3]; 1.0 mg/kg LLDT-8, 15 days): decreased
- γ-H2AX protein level (immunoblotting) in testes and liver ([3]; 0.5–1 mg/kg, 15 days): reduction of γ-H2AX protein level in the testes but not in the liver
- XY bodies indicated by γ-H2AX foci in testes of KO mice ([3]; LLDT-8 treated, 15 days): disappeared
- reduction of γ-H2AX in the testes of WT mice ([3]; immunoblotting, not statistically significant): up to 40%
- LD50 [4]: 9.3 mg/kg
